Test results published in patent US8927760B2, “Colchicine derivatives or pharmaceutically acceptable salts thereof, method for preparing said derivatives, and pharmaceutical composition comprising said derivatives” (priority 2010, dated 2015).
Where “and” joins values, the source holds several entries; their conditions need not be identical. Equal values may be shown once. Entries after “also recorded” stand apart in the source; their conditions may differ.

Tests used:
[1] = system: spleen cells of rats; assay: Cytotoxicity test in rat spleen cells (CCK, absorbance at 450 nm); type: cell-based; conditions: 72 hours, at concentrations of 100 ng to 10000 ng/mL
Description: Cytotoxicity test was performed to determine the toxicity of immunosuppressant candidate materials by mixing the immunosuppressant candidate materials with spleen cells of rats in culture media and measuring the degree of toxicity in the cells. […] The concentrations of the drugs were 0.1, 1, 10, 100, 1000, 10000, and 100000 ng/mL. The cells were cultured in a CO2 incubator for 72 hours, and then each well was treated with 10 μl of CCK-SK (Dojindo, Japan). Subsequently, the cells were cultured again in the CO2 incubator for 4 hours, and then the absorbance (O.D. value) was measured at 450 nm using a spectrophotometer.

[2] = system: streptozotocin induced diabetic Fischer 344 rats with transplanted Lewis rat islet cells; assay: Allogeneic pancreatic islet cell transplantation - combined intraperitoneal administration; type: in vivo; conditions: for Average number of days for which islet cell function was maintained / Number of days for which islet cell function was maintained (individual rats): i.p. for 14 days
Description: (§1) Streptozotocin is a drug that destroys pancreatic islet cells to induce diabetes and is used to create experimental diabetic animal models. Allogeneic islets were transplanted into the livers of streptozotocin induced diabetic rat by injection into the portal vein. The functioning of transplanted islets was assessed by daily measurements of blood glucose levels. Islets were considered rejected when the blood glucose level was 200 mg/dl on two consecutive days.
(§2) 35 mg/kg of streptozotocin (50 mg/mL) dissolved in a 0.1 M citrate buffer solution (pH 4.5) was intraperitoneally injected into 8-week-old male Fischer 344 rats (F344) weighing about 200 to 220 g. Then, the blood glucose level was measured after 1 week, and the first day when the blood glucose level increased over 300 mg/dl and the increase was repeated more than twice was considered as the date of diagnosis of diabetes. The rats were used in transplantation 3 weeks after the administration of streptozotocin.
(§3) Pancreases of 8-week-old male Lewis rats were extracted on the 3 weeks after the diabetes was induced in Fischer rats, and islet cells were isolated. The isolated islet cells were cultured in a CO2 incubator at 37° C. for a day, and the cultured islet cells were transplanted into the diabetic Fischer rats.
However, considering the interaction between the two drugs, the two drugs were introduced in different syringes and injected to right and left sides of the abdominal cavity, respectively, and the measurement results are shown in the following table 4.

[3] = system: streptozotocin induced diabetic Fischer 344 rats with transplanted Lewis rat islet cells; assay: Allogeneic pancreatic islet cell transplantation - single intraperitoneal administration; type: in vivo
Description: as §1, §2, §3
Cyclosporin (5 mg/kg), colchicine (10 μg/kg and 40 μg/kg), and colchicine derivative compounds (compounds 1, 7, 9, 14, 15, 17, 18, 22, and 23; 50 μg/kg) were administered to the Fischer rats, to which the islet cells were transplanted, for 14 days from the date of transplantation, and the maintenance of blood glucose levels was examined until rejection occurred from the date of transplantation.

[4] = system: Wistar rat (recipient) with transplanted Lewis rat heart; assay: Allogeneic heart transplantation (abdominal heterotopic, Lewis donor to Wistar recipient); type: in vivo
Description: Hearts of 8-week-old Lewis rats (donor) weighing about 250 g were extracted and performed abdominal heterotopic heart transplantation into the abdominal cavity of 8-week-old Wistar rat (recipient) weight about 300 g by cross-clamping caudal vena cava and the abdominal aorta of recipient both proximally and distally to the anastomotic site.
The heart rate of each rat in an untreated control group and the experimental groups was measured by abdominal palpation from the date of the heart transplant, and the heart rate was classified as ++++ (strong and fast heartbeat), +++ (strong or fast heartbeat), ++ (faint and slow but distinct heartbeat), + (faint but steady heartbeat), and ±0 (intermittent heartbeat).

[5] = 50 μg/kg combined with CsA (5 mg/kg)
[6] = single administration, 50 μg/kg i.p. for 14 days
[7] = 10 μg/kg intravenously for 14 days
[8] = single administration, 10 μg/kg i.p. for 14 days

COc1ccc(COC(=O)NC2CCc3cc(OC)c(OC)c(OC)c3-c3ccc(OC)c(=O)cc32)cc1 (stereo not shown) [Compound 7, (1,2,3,10-tetramethoxy-9-oxo-5,6,7,9-tetrahydro-benzo[a]heptalen-7-yl)-carbamic acid 4-methoxy benzyl ester]
cytotoxicity [1]: no cytotoxicity
Average number of days for which islet cell function was maintained [2, 5]: >61.6 days
Average number of days for which islet cell function was maintained ([2]; 100 μg/kg combined with CsA (5 mg/kg)): >72 days
Average number of days for which islet cell function was maintained [3, 6]: 5.7 ± 1.16 days
Number of days for which islet cell function was maintained (individual rats) [3, 6]: 5 day (2×) and 7 day

COc1cc2c(c(OC)c1OC)-c1ccc(OC)c(=O)cc1C(NC(=O)OCC1c3ccccc3-c3cccc(C)c31)CC2 (stereo not shown) [Compound 15, (1,2,3,10-tetramethoxy-9-oxo-5,6,7,9-tetrahydro-benzo[a]heptalen-7-yl)-carbamic acid 1-methyl-9H-fluoren-9-ylmethyl ester]
cytotoxicity [1]: no cytotoxicity
Average number of days for which islet cell function was maintained [2, 5]: 24 days
Number of days for which islet cell function was maintained (individual rats) [2, 5]: 24, 24 day

COc1cc2c(c(OC)c1OC)-c1ccc(OC)c(=O)cc1C(NC(=O)OCCC1c3ccccc3-c3ccccc31)CC2 (stereo not shown) [Compound 18, (1,2,3,10-tetramethoxy-9-oxo-5,6,7,9-tetrahydro-benzo[a]heptalen-7-yl)-carbamic acid 2-(9H-fluoren-9-yl)-ethyl ester]
cytotoxicity [1]: no cytotoxicity
Average number of days for which islet cell function was maintained [2, 5]: 28 days

COc1cc2c(c(OC)c1OC)-c1ccc(OC)c(=O)cc1[C@@H](NC(C)=O)CC2 [Colchicine, colchicine]
Average number of days for which islet cell function was maintained ([2]; 10 μg/kg combined with CsA (5 mg/kg)): 8 days
Average number of days for which islet cell function was maintained ([2]; 10 μg/kg combined with CsA (5 mg/kg), listed as colchicine): 8 days
increase of days of islet cell function compared to the single administration ([2]; 10 μg/kg combined with cyclosporin A (5 mg/kg)): about 3 days
Average number of days for which heart rate was kept [4, 7]: >70 ± 100.5 days
Number of days for which heart rate was kept (individual rats) [4, 7]: 12 day (2×) and > 186 day
Number of days for which heart rate was kept (individual rats) ([4]; 10 μg/kg intravenously for 14 days, listed as colchicine): 12 day and over 186 day
Average number of days for which heart rate was kept ([4]; 40 μg/kg intravenously for 14 days): >73.3 ± 85.4 days
Number of days for which heart rate was kept (individual rats) ([4]; 40 μg/kg intravenously for 14 days, * = death): 13 days and 14 days and > 32 days and > 187 days
Number of days for which heart rate was kept (individual rats) ([4]; 40 μg/kg intravenously for 14 days, * = death, listed as colchicine): 13 day and 14 day and over 187 day
death of rats ([3]; 40 μg/kg alone, four rats, listed as colchicines): two of the four rats were dead; also recorded: one rat was dead suddenly after 9 days
weight reduction ([3]; 40 μg/kg alone, on the second day, the two rats that died): 15%
difference from the control group in maintenance of blood glucose levels ([3]; single administration): no significant differences from the control group
Average number of days for which islet cell function was maintained [3, 8]: 5 days
Number of days for which islet cell function was maintained (individual rats) [3, 8]: 5, 5 day
Average number of days for which islet cell function was maintained ([3]; single administration, 40 μg/kg i.p. for 14 days): 6 days
Number of days for which islet cell function was maintained (individual rats) ([3]; single administration, 40 μg/kg i.p. for 14 days, * = death): 2 day (2×) and 6 day and 9 day
Number of days for which islet cell function was maintained (individual rats) ([3]; single administration, 40 μg/kg i.p. for 14 days, * = death, listed as colchicines): 6 days

COc1cc2c(c(OC)c1OC)-c1ccc(OC)c(=O)cc1C(NC(=O)OCC1c3cc(C(C)(C)C)ccc3-c3ccc(C(C)(C)C)cc31)CC2 (stereo not shown) [Compound 17, (1,2,3,10-tetramethoxy-9-oxo-5,6,7,9-tetrahydro-benzo[a]heptalen-7-yl)-carbamic acid 2,7-di-tert-butyl-9H-fluoren-9-ylmethyl ester]
cytotoxicity [1]: no cytotoxicity
Average number of days for which islet cell function was maintained [2, 5]: 36.5 days

COc1ccc(CCC(=O)NC2CCc3cc(OC)c(OC)c(OC)c3-c3ccc(OC)c(=O)cc32)cc1 (stereo not shown) [Compound 22, 3-(4-methoxy-phenyl)-N-(1,2,3,10-tetramethoxy-9-oxo-5,6,7,9-tetrahydro-benzo[a]heptalen-7-yl)-propionamide]
cytotoxicity [1]: no cytotoxicity
Average number of days for which islet cell function was maintained [2, 5]: 20.7 days

COc1cc2c(c(OC)c1OC)-c1ccc(OC)c(=O)cc1C(NC(=O)OCc1ccccc1)CC2 (stereo not shown) [Compound 1, (1,2,3,10-tetramethoxy-9-oxo-5,6,7,9-tetrahydro-benzo[a]heptalen-7-yl)-carbamic acid benzyl ester]
cytotoxicity [1]: no cytotoxicity
Average number of days for which islet cell function was maintained [2, 5]: 27 days
Number of days for which islet cell function was maintained (individual rats) [2, 5]: 27, 27 day

COc1cc2c(c(OC)c1OC)-c1ccc(OC)c(=O)cc1C(NC(=O)OCc1ccc(C(C)C)cc1)CC2 (stereo not shown) [Compound 9, (1,2,3,10-tetramethoxy-9-oxo-5,6,7,9-tetrahydro-benzo[a]heptalen-7-yl)-carbamic acid 4-isopropyl benzyl ester]
cytotoxicity [1]: no cytotoxicity
Average number of days for which islet cell function was maintained [2, 5]: >55.7 days
Average number of days for which islet cell function was maintained [3, 6]: 5.7 ± 0.58 days
Number of days for which islet cell function was maintained (individual rats) [3, 6]: 5 days to days and 5 day and 6 day

COc1cc2c(c(OC)c1OC)-c1ccc(OC)c(=O)cc1C(NC(=O)CC1c3ccccc3-c3ccccc31)CC2 (stereo not shown) [Compound 23, 2-(9H-fluoren-9-yl)-N-(1,2,3,10-tetramethoxy-9-oxo-5,6,7,9-tetrahydro-benzo[a]heptalen-7-yl)-acetamide]
cytotoxicity [1]: no cytotoxicity
Average number of days for which islet cell function was maintained [2, 5]: 26.5 days
